According to paper PMC8264055, “Pharmacokinetics of Colistin in the Gastrointestinal Tract of Poultry Following Dosing via Drinking Water and Its Bactericidal Impact on Enteric Escherichia coli” (Frontiers in Veterinary Science, 2021):
Structures can show the parent of a compound that is named as a salt. Positions of bridges follow the written chain, without caps; N, C: chain ends. Non-standard residues stand in square brackets, D forms with d. Residues, ends and D or L forms follow the SMILES beside them. *: point of attachment. X1 = CC[C@H](C)CCCCC(=O)*; Dab = NCC[C@H](N)C(=O)O

Tests used:
[1] = Colistin content in luminal intestinal content (LIC) by UHPLC-MS/MS, non-compartmental PK analysis; format: in vivo, broiler chicken (Gallus gallus domesticus)
Source text: (§1) This study was approved by the Royal Veterinary College ethics and welfare committee. One hundred Ross 308 broiler chicken (Gallus gallus domesticus) were obtained from an approved supplier and housed in the animal welfare barn (AWB) at the Royal Veterinary College. Poultry were group-housed and fed baby chick crumbs (Smallholder Range, Norfolk, UK), a feed free of coccidiostats and designed to feed from hatching to 6–8 weeks, and given free access to water for the duration of the study. At 13 days, six birds were separated and maintained as a control group for the course of the study with the remaining 94 birds constituting the study group. European Pharmacopeia-compliant Meiji Seika Pharma's colistin sulfate (ColiMeiji®, hereafter “colistin”) consisting of a 78.53% (“as is”) mixture of colistin A (polymyxin E1) and colistin B (polymyxin E2), was per certificate of analysis (CoA) supplied by Wyjolab (Chaillac, France). Potency of colistin (as reported by CoA) was 23,558 IU/mg, and dosing was calculated as equivalent colistin base. Colistin was administered via drinking water to the study group at a dose equal to 75,000 IU/kg/day over a period of 3 days. The volume of colistin stock solution (2,000,000 IU/ml) diluted per 3-L drinking bell (Poultry Drinker 3L, Farm & Country Supplies, Alton, Hampshire, UK) was based on the average bird weight and water consumption measured on the day prior to dosing. Actual dose received every 24 h was back calculated based on measured water consumption for that period and bird weights. Birds were housed in a 25-m^2 floor pen with access to 5 × 3-L drinking bells, refreshed every 24 h. Average relative humidity was 44.5% (range: 29–63%) and average temperature 24°C (range: 20–28°C). Birds were provided a 14-h photoperiod aligned with onset of dosing (0 h) at 07:00.
(§2) The study group was sampled at predetermined times pre-dose (0 h), during oral dosing (at 12, 36, and 54 h), at cessation of dosing (72 h), and after dosing (73, 74, 76, 80, 84, 96, 120, and 144 h from the onset of dosing). At each time point, eight birds were sacrificed, except at 12, 36, and 54 h where only six birds were sacrificed. After neck dislocation, cloacal swabs were immediately taken, and the whole small intestine was excised after placing three ligatures (one around the duodenum, one on the ileum just proximally to the cecal attachment, and one distally to include the large intestine). All samples were stored at 4°C for no more than 48 h prior to further analysis. All birds in the control group underwent cloacal sampling at matching time points.
Each intestinal specimen was individually processed with a new set of examination gloves and blades to avoid carry over or contamination. The ceca were separated from the small intestine by cutting off the ileum proximally to the ligature. The luminal intestinal content (LIC) was then evacuated through peristaltic massage of the small intestine in a proximal-to-distal direction. Extracted LIC was mixed to ensure a homogenous sample, and 200 mg (±2 mg) aliquots were separated for further testing. Parietal intestinal content (PIC) was collected following LIC; the intestine was inflated with air, straightened, and longitudinally incised with a scalpel blade no. 11. The opened intestine was flattened, and the blade was used to scrape the parietal lining of the intestine. Luminal cecal content (LCC) was extracted in a similar fashion following incision at one end. Aliquots for colistin quantification were stored at −80°C or at 4°C for bacterial enumeration and isolation.
Total colistin content was quantified using a novel ultra-high-performance liquid chromatography-tandem mass spectrometry (UHPLC-MS/MS) method. […]

[2] = tested on: enteric E. coli; assay: Enumeration of E. coli in luminal intestinal content on UriSelect 4 agar during and after colistin treatment; format: in vivo, Escherichia coli
Source text: as §1
as §2, with “All birds in the control group underwent cloacal sampling at matching time points.” left out
UriSelect 4™ agar (Bio-Rad, Watford, UK) plates were used for enumeration and isolation of E. coli from LIC. […] Bacterial counts in original LIC were back calculated based on the total number of colonies countable on UriSelect 4™ agar. […]

[3] = LIC, nominal dose 75,000 IU/kg/day, NCA sparse option, 6 to 8 birds per time point
[4] = nominal dose 75,000 IU/kg/day via drinking water, from partial AUC, NCA sparse option
[5] = during dosing, 75,000 IU/kg/day via drinking water, n = 6, median baseline 3.6 × 10^6 CFU/g

## CC[C@H](C)CCCCC(=O)N[C@@H](CCN)C(=O)N[C@H](C(=O)N[C@@H](CCN)C(=O)N[C@H]1CCNC(=O)[C@H]([C@@H](C)O)NC(=O)[C@H](CCN)NC(=O)[C@H](CCN)NC(=O)[C@H](CC(C)C)NC(=O)[C@@H](CC(C)C)NC(=O)[C@H](CCN)NC1=O)[C@@H](C)O [colistin, colistin sulfate] (X1-[Dab]T[Dab][Dab][Dab][dL]L[Dab][Dab]T; lactam 4-C)
[1]; [3]
  Partial AUC, AUC0-24h (first day): 54.1 mg·h/kg
  Partial AUC, AUC24-48h (second day): 75.5 mg·h/kg
  Partial AUC, AUC48-72h (third day): 112.6 mg·h/kg
[1]; Ross 308 broiler, luminal intestinal content (LIC), po, 75000 IU/kg/day, 75,000 IU/kg/day via drinking water for 72 h, 72 h, mean of n = 8 birds, read-out: mean colistin content in LIC at cessation of dosing
  tissue level at time at 72 h: 4510 ng/g
[1]; broiler chickens, colistin sulfate 75,000 IU/kg/day via drinking water for 72 h, 54 h from onset of dosing, mean of n = 6 birds, UHPLC-MS/MS, LOQ 1.1 mg/kg
  mean colistin content in LIC, peak: 5.09 mg/kg
[1]; [4]
  Average colistin luminal intestinal content, 0-48 h (first and second day): 2.70 mg/kg digesta
  Average colistin luminal intestinal content, 24-48 h (second day): 3.15 mg/kg digesta
[2]; after dosing, to end of the experiment, n = 8 per time point
  median E. coli count in LIC at 96, 120 and 144 h: ~5 × 10^5
[2]; [5]
  median E. coli count in LIC at 36 h: 3.9 × 10^3 CFU/g
  median E. coli count in LIC at 54 h: 1.56 × 10^4 CFU/g
[2]; up to 36 h post-onset of colistin administration
  log reduction in the number of E. coli: > 3 log
